Earlier results as cited in patent publication US7129355B2, “Process for preparing kifunensine intermediate and kifunensine therefrom” (Industrial Research Limited, priority 2002, dated 2006).

System: plant mannosidase II
Settings: Elbein et al., J. Biol. Chem. 265, 15599, 1990

## O=C1N[C@@H]2[C@@H](O)[C@@H](O)[C@H](O)[C@@H](CO)N2C1=O [Kifunensine]
  activity toward plant mannosidase II: inactive
